Laboratory results from PubChem BioAssay (NCI).
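In this assay, cells in 96-well plates receive the compound at five concentrations for 48 hours. Endpoints are linearly interpolated between the surrounding concentrations. GI50 = concentration required for 50% inhibition of growth. TGI: total growth inhibition.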

How the values were obtained:
Assay in all cases: NCI-60 cell line screen, 48 h
OVCAR-5 ovarian = system: OVCAR-5 ovarian
ACHN renal = system: ACHN renal
LOX IMVI melanoma = system: LOX IMVI melanoma
SR leukemia = system: SR leukemia
HL-60(TB) leukemia = system: HL-60(TB) leukemia
HT29 colon = system: HT29 colon
786-0 renal = system: 786-0 renal
EKVX NSCLC = system: EKVX NSCLC
COLO 205 colon = system: COLO 205 colon
DU-145 prostate = system: DU-145 prostate

## CC(=O)O[C@@H]1CC[C@@]2(C)C(=O)C34C[C@@]5(C)C([C@@H](C)CCCC(C)C)CCC5(C)[C@](O)(O3)C(=O)[C@H]4C2C1(C)C (some centres undefined)
OVCAR-5 ovarian
  TGI: 29.3 µM
ACHN renal
  TGI: 27 µM
LOX IMVI melanoma
  TGI: 32.1 µM
SR leukemia
  TGI: 35.2 µM
HL-60(TB) leukemia
  TGI: 25.3 µM
HT29 colon
  TGI: 25.6 µM
786-0 renal
  TGI: 25.6 µM
EKVX NSCLC
  TGI: 38.3 µM
COLO 205 colon
  TGI: 27.8 µM

## Clc1ccccc1C1SCc2nc3ccccc3n21 (centres undefined)
OVCAR-5 ovarian
  TGI: 79.4 µM
ACHN renal
  TGI: > 100 µM
LOX IMVI melanoma
  TGI: 81.8 µM
SR leukemia
  TGI: 59.6 µM
HL-60(TB) leukemia
  TGI: 42.3 µM
HT29 colon
  TGI: > 100 µM
786-0 renal
  TGI: 88 µM
EKVX NSCLC
  TGI: 81.9 µM
COLO 205 colon
  TGI: > 100 µM

## COc1cc2c(cc1-c1coc3cc(O)ccc3c1=O)OCO2
OVCAR-5 ovarian
  TGI: > 100 µM
ACHN renal
  TGI: 40.9 µM
LOX IMVI melanoma
  TGI: > 100 µM
HL-60(TB) leukemia
  TGI: > 100 µM
HT29 colon
  TGI: > 100 µM
DU-145 prostate
  TGI: > 100 µM
786-0 renal
  TGI: 29.9 µM
EKVX NSCLC
  TGI: > 100 µM
COLO 205 colon
  TGI: > 100 µM

## CC1=CC[C@@H](C(C)(C)O)C[C@@H]1O
OVCAR-5 ovarian
  TGI: > 5000 µM
ACHN renal
  TGI: > 5000 µM
LOX IMVI melanoma
  TGI: > 5000 µM
SR leukemia
  TGI: > 5000 µM
HL-60(TB) leukemia
  TGI: > 5000 µM
HT29 colon
  TGI: > 5000 µM
786-0 renal
  TGI: > 5000 µM
EKVX NSCLC
  TGI: > 5000 µM
COLO 205 colon
  TGI: > 5000 µM

## CC1C(O)=C(O)c2ccccc2N1O (centres undefined)
OVCAR-5 ovarian
  TGI: > 100 µM
ACHN renal
  TGI: > 100 µM
LOX IMVI melanoma
  TGI: > 100 µM
HL-60(TB) leukemia
  TGI: > 100 µM
HT29 colon
  TGI: > 100 µM
786-0 renal
  TGI: > 100 µM
EKVX NSCLC
  TGI: > 100 µM
COLO 205 colon
  TGI: > 100 µM

## COC(=O)C1=CC(=O)[C@@H]2CCCC[C@H]12
ACHN renal
  TGI: > 100 µM
SR leukemia
  TGI: > 100 µM
HL-60(TB) leukemia
  TGI: > 100 µM
786-0 renal
  TGI: > 100 µM
COLO 205 colon
  TGI: > 100 µM

## CC(=O)N[C@@H](Cc1ccc(OP(=O)(O)O)cc1)C(=O)N[C@H]1CCC(=O)N2CCC[C@@H](C(=O)NC3CCc4ccccc43)N2C1=O (some centres undefined)
OVCAR-5 ovarian
  GI50: > 25 µM
  TGI: > 25 µM
ACHN renal
  GI50: > 25 µM
  TGI: > 25 µM
LOX IMVI melanoma
  GI50: > 25 µM
  TGI: > 25 µM
HL-60(TB) leukemia
  GI50: > 25 µM
  TGI: > 25 µM
HT29 colon
  GI50: > 25 µM
  TGI: > 25 µM
DU-145 prostate
  GI50: > 25 µM
  TGI: > 25 µM
786-0 renal
  GI50: > 25 µM
  TGI: > 25 µM
COLO 205 colon
  GI50: > 25 µM
  TGI: > 25 µM

## N#Cc1cccc(C2C(=O)c3ccc(C(=O)c4ccc5c(c4)C(=O)N(c4ccc(Oc6ccc(N7C(=O)c8ccc(C(=O)c9ccc%10c(c9)C(=O)N(c9cccc(C#N)c9)C%10=O)cc8C7=O)cc6)cc4)C5=O)cc3C2=O)c1 (centres undefined)
OVCAR-5 ovarian
  TGI: > 100 µM
ACHN renal
  TGI: > 100 µM
HL-60(TB) leukemia
  TGI: > 100 µM
HT29 colon
  TGI: > 100 µM
786-0 renal
  TGI: > 100 µM
EKVX NSCLC
  TGI: > 100 µM
COLO 205 colon
  TGI: > 100 µM

## N#C/C(=C\c1ccc[nH]1)C(=O)c1ccccc1
OVCAR-5 ovarian
  TGI: > 100 µM
ACHN renal
  TGI: > 100 µM
LOX IMVI melanoma
  TGI: > 100 µM
SR leukemia
  TGI: > 100 µM
HL-60(TB) leukemia
  TGI: > 100 µM
HT29 colon
  TGI: > 100 µM
786-0 renal
  TGI: > 100 µM
EKVX NSCLC
  TGI: > 100 µM
COLO 205 colon
  TGI: > 100 µM

## Cc1c(Cl)c(C)c(Cl)c(O)c1Cl
OVCAR-5 ovarian
  TGI: > 100 µM
ACHN renal
  TGI: 72.5 µM
LOX IMVI melanoma
  TGI: > 100 µM
HL-60(TB) leukemia
  TGI: 58.4 µM
HT29 colon
  TGI: > 100 µM
DU-145 prostate
  TGI: > 100 µM
786-0 renal
  TGI: > 100 µM
EKVX NSCLC
  TGI: 82.1 µM
COLO 205 colon
  TGI: > 100 µM

## Fc1ccc(N=C2C=CC(=Nc3ccc(F)cc3)c3ccccc32)cc1
OVCAR-5 ovarian
  TGI: > 100 µM
ACHN renal
  TGI: > 100 µM
LOX IMVI melanoma
  TGI: > 100 µM
SR leukemia
  TGI: > 100 µM
HL-60(TB) leukemia
  TGI: > 100 µM
HT29 colon
  TGI: > 100 µM
786-0 renal
  TGI: > 100 µM
EKVX NSCLC
  TGI: > 100 µM
COLO 205 colon
  TGI: > 100 µM
